Consider 8 molecules from PubChem BioAssay (NCI).

Some test systems named below: EKVX NSCLC; KM12 colon; K-562 leukemia; A498 renal; RPMI-8226 leukemia; CAKI-1 renal; SW-620 colon; MDA-MB-231 breast; MOLT-4 leukemia; TK-10 renal; UACC-257 melanoma; PC-3 prostate; HCT-15 colon; SK-MEL-28 melanoma; HCT-116 colon; CCRF-CEM leukemia; HL-60(TB) leukemia; HOP-92 NSCLC; SR leukemia.
Experiment in all cases: NCI-60 cell line screen, 48 h

Each structure is given as a SMILES string.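 96-well plates; 48 h exposure; 5 concentrations. Endpoints by linear interpolation between flanking doses. Not reached: highest tested concentration assigned. TGI denotes the concentration required for complete inhibition of growth.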

With `O=C(NC(C(F)(F)F)(C(F)(F)F)P(=O)(c1ccccc1)c1ccccc1)C(C(F)(F)F)C(F)(F)F`, the TGI in the assay with EKVX NSCLC is above 100 µM; in the assay with KM12 colon, 56.8 µM; in the assay with K-562 leukemia, above 100 µM; in the assay with A498 renal, above 100 µM; with RPMI-8226 leukemia it was 91.8 µM; in the assay with CAKI-1 renal, 0.0564 µM. For the same molecule, the TGI with SW-620 colon is 62.3 µM; with MDA-MB-231 breast it was 59.2 µM; in the assay with MOLT-4 leukemia it was above 100 µM; with TK-10 renal, 72.7 µM; with UACC-257 melanoma, 82.2 µM; in the assay on PC-3 prostate it was 80.8 µM. For the same molecule, the TGI is 83.3 µM in the assay with HCT-15 colon; above 100 µM with SK-MEL-28 melanoma; 39.1 µM in the assay with HCT-116 colon; above 100 µM in the assay on CCRF-CEM leukemia; 63.2 µM in the assay on HL-60(TB) leukemia.
Consider `Cc1occc1C(=S)Nc1ccc(Cl)c(C(=O)OCC(F)(F)F)c1`, for which the TGI in the assay on EKVX NSCLC was 64.2 µM; in the assay on KM12 colon, 44.4 µM; in the assay with K-562 leukemia it was 59.1 µM; in the assay with A498 renal, 30.5 µM; in the assay on RPMI-8226 leukemia, 51.5 µM; with HOP-92 NSCLC, 44.1 µM. The TGI with CAKI-1 renal turned out to be 82.6 µM; in the assay on SW-620 colon, 56.3 µM; with MDA-MB-231 breast, 35.2 µM; in the assay with MOLT-4 leukemia, 55.8 µM; in the assay with TK-10 renal, 43 µM; in the assay on UACC-257 melanoma it was 55.9 µM. In addition, the TGI with PC-3 prostate was 57.8 µM; in the assay on HCT-15 colon, 45.3 µM; in the assay with SK-MEL-28 melanoma it was 42.6 µM; with HCT-116 colon it was 33.1 µM; in the assay on CCRF-CEM leukemia it was 57.7 µM; in the assay on HL-60(TB) leukemia, 65.6 µM.
As to `NCCCCNCCCN1CC1`, the TGI with EKVX NSCLC was 18.3 µM; in the assay with KM12 colon it was 24.4 µM; in the assay on SR leukemia it was 52.9 µM; with K-562 leukemia it was above 26.4 µM; with A498 renal, 1.84 µM; with RPMI-8226 leukemia, above 100 µM. Moreover, the TGI was 7.47 µM with HOP-92 NSCLC; 0.382 µM in the assay with CAKI-1 renal; above 100 µM in the assay on SW-620 colon; above 100 µM with TK-10 renal; above 100 µM in the assay on UACC-257 melanoma; above 100 µM in the assay with PC-3 prostate. Besides, the TGI with HCT-15 colon was above 100 µM; in the assay on SK-MEL-28 melanoma, above 26 µM; with HCT-116 colon it was above 100 µM; in the assay on HL-60(TB) leukemia, 5.32 µM.
As to `O=C(c1ccc(Cl)cc1Cl)N(C(=O)N1CCC(c2ccccc2)CC1)c1ccccc1`, the TGI with EKVX NSCLC, in the assay on KM12 colon, in the assay on SR leukemia, with K-562 leukemia, in the assay with A498 renal and with RPMI-8226 leukemia was above 100 µM throughout. Further, the TGI in the assay with HOP-92 NSCLC was above 100 µM; in the assay on CAKI-1 renal, above 100 µM; in the assay with SW-620 colon it was above 100 µM; in the assay with MOLT-4 leukemia it was 75 µM; in the assay with UACC-257 melanoma, above 100 µM; in the assay on PC-3 prostate, above 100 µM. The TGI in the assay with HCT-15 colon, with SK-MEL-28 melanoma, in the assay with HCT-116 colon and in the assay with CCRF-CEM leukemia was above 100 µM in each case.
As to `O=C(O)C1C(C(=O)O)C2C(=O)C=CC1N2Cc1ccccc1` (stereo not drawn), the TGI was 16.3 µM in the assay with EKVX NSCLC; 12.7 µM in the assay on KM12 colon; above 100 µM with K-562 leukemia; 42.6 µM with A498 renal; 13.6 µM in the assay on RPMI-8226 leukemia; 24.6 µM in the assay on HOP-92 NSCLC. The TGI in the assay on CAKI-1 renal was determined as 14.5 µM; in the assay with SW-620 colon, 11.6 µM; in the assay on MDA-MB-231 breast, 14.4 µM; in the assay on MOLT-4 leukemia it was 9.18 µM; in the assay on TK-10 renal, 11.4 µM; with UACC-257 melanoma it was 11.6 µM. Moreover, the TGI with PC-3 prostate was found to be 18.8 µM; in the assay with HCT-15 colon it was 10.3 µM; in the assay with SK-MEL-28 melanoma, 15.5 µM; with HCT-116 colon, 15.2 µM; in the assay with CCRF-CEM leukemia, 2.75 µM; in the assay with HL-60(TB) leukemia, 4.31 µM.
With `CSC1=N[C@H](c2ccccc2)CS1`, the TGI in the assay on EKVX NSCLC, in the assay with KM12 colon, in the assay with K-562 leukemia, in the assay on A498 renal, in the assay with RPMI-8226 leukemia and in the assay on CAKI-1 renal was above 100 µM in each case. In addition, the TGI with SW-620 colon, in the assay with MOLT-4 leukemia, with TK-10 renal, in the assay with UACC-257 melanoma, with PC-3 prostate and in the assay with HCT-15 colon was above 100 µM in each case. The TGI in the assay with SK-MEL-28 melanoma, in the assay on HCT-116 colon and in the assay on CCRF-CEM leukemia was above 100 µM throughout.
For `CC(C)c1ccccc1SC1CC(=O)CC(Sc2ccccc2C(C)C)C12O[C@H](c1ccccc1)[C@@H](c1ccccc1)O2` (stereo partly drawn), the TGI in the assay with EKVX NSCLC is above 100 µM; in the assay on KM12 colon, above 100 µM; in the assay on A498 renal it was above 100 µM; with RPMI-8226 leukemia it was 61.3 µM; in the assay on HOP-92 NSCLC, above 100 µM; with CAKI-1 renal it was 62.5 µM. Moreover, the TGI in the assay with SW-620 colon is above 100 µM; in the assay with MDA-MB-231 breast it was 71.8 µM; in the assay with MOLT-4 leukemia, above 100 µM; in the assay with TK-10 renal, above 100 µM; in the assay with UACC-257 melanoma, above 100 µM; in the assay with PC-3 prostate, above 100 µM. The TGI in the assay with HCT-15 colon is above 100 µM; in the assay on SK-MEL-28 melanoma it was above 100 µM; with HCT-116 colon, above 100 µM; in the assay with CCRF-CEM leukemia, 52.9 µM; in the assay on HL-60(TB) leukemia it was 34.8 µM.
Take `N#CC1(C#N)C2CCCCC23OC(=N)C1(C#N)C(c1ccco1)O3` (stereo not drawn): the TGI in the assay on EKVX NSCLC was 79.3 µM; in the assay on KM12 colon, above 100 µM; in the assay on K-562 leukemia it was above 100 µM; with A498 renal, 57.7 µM; with HOP-92 NSCLC, 29.2 µM; in the assay on CAKI-1 renal, 24.5 µM. Moreover, the TGI with SW-620 colon was 52.3 µM; with MDA-MB-231 breast, 33 µM; in the assay with MOLT-4 leukemia, above 100 µM; in the assay with TK-10 renal, 36.1 µM; in the assay with UACC-257 melanoma, 34.9 µM; with PC-3 prostate it was 64.6 µM. The TGI in the assay on HCT-15 colon is 22.5 µM; in the assay on SK-MEL-28 melanoma, 45.6 µM; in the assay with HCT-116 colon, 38.5 µM; in the assay with CCRF-CEM leukemia, above 100 µM.
